Results as given in ChEMBL document CHEMBL1201862, “PubChem BioAssay data set” (2004).
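Values below derive from 48-hour exposures of cells grown in 96-well plates, with endpoints linearly interpolated between the two concentrations bracketing the appropriate inhibition level. GI50 = concentration required for 50% inhibition of growth.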 Active and inactive are the calls of the source. Rule as the data show it: active = GI50 up to about 1.1 µM and inactive = higher.

Assays:
Experiment in all cases: NCI-60 cell line screen, 48 h
OVCAR-3 = system: OVCAR-3
M14 = system: M14
UACC-257 = system: UACC-257
NCI-H23 = system: NCI-H23
HOP-62 = system: HOP-62
SW-620 = system: SW-620
EKVX = system: EKVX
HT-29 = system: HT-29
HCC 2998 = system: HCC 2998
KM12 = system: KM12
SF-295 = system: SF-295
CAKI-1 = system: CAKI-1
TK-10 = system: TK-10
SF-268 = system: SF-268
CCRF-CEM = system: CCRF-CEM
A498 = system: A498
RXF 393 = system: RXF 393

| Structure (SMILES) | GI50 (OVCAR-3) | GI50 (M14) | GI50 (UACC-257) | GI50 (NCI-H23) | GI50 (HOP-62) | GI50 (SW-620) | GI50 (EKVX) | GI50 (HT-29) | GI50 (HCC 2998) | GI50 (KM12) | GI50 (SF-295) | GI50 (CAKI-1) | GI50 (TK-10) | GI50 (SF-268) | GI50 (CCRF-CEM) | GI50 (A498) | GI50 (RXF 393) |
| --- | --- | --- | --- | --- | --- | --- | --- | --- | --- | --- | --- | --- | --- | --- | --- | --- | --- |
| CC(=O)C1=C(O)C2C3c4c[nH]c5cccc(c45)CC3C(C)(C)N2C1=O (stereo unspecified) | 23.1 µM (inactive) | > 100 µM (inactive) | 62.2 µM (inactive) | 11.6 µM (inactive) | 6.46 µM (inactive) | 30.3 µM (inactive) | 20.6 µM (inactive) | 34.4 µM (inactive) | 23.1 µM (inactive) | 40.5 µM (inactive) | 24.3 µM (inactive) | > 100 µM (inactive) | 46.5 µM (inactive) | 27.4 µM (inactive) | 27.2 µM (inactive) | 20.1 µM (inactive) | – |
| Oc1c(C(Nc2cccc3cccnc23)c2ccccc2)ccc2cccnc12 (stereo unspecified) | 5.77 µM (inactive) | – | 4.38 µM (inactive) | 5.43 µM (inactive) | 9.64 µM (inactive) | 4.05 µM (inactive) | 4.84 µM (inactive) | – | 14.2 µM (inactive) | 7.41 µM (inactive) | 3.87 µM (inactive) | 5.6 µM (inactive) | – | 4.21 µM (inactive) | 1.57 µM (inactive) | 22.6 µM (inactive) | – |
| C[N+](C)(C)CC1CCCCC1=O (stereo unspecified) | 19.1 µM (inactive) | 16.6 µM (inactive) | 14.3 µM (inactive) | 22.5 µM (inactive) | > 100 µM (inactive) | 8.49 µM (inactive) | 19.9 µM (inactive) | 19.6 µM (inactive) | – | 58.2 µM (inactive) | > 100 µM (inactive) | – | 37.1 µM (inactive) | – | 4.56 µM (inactive) | – | 18.4 µM (inactive) |
| CN(C)CCNC(=O)c1cccc2c(Nc3ccc(S(N)(=O)=O)cc3)c3ccccc3nc12 | 1.69 µM (inactive) | 1.67 µM (inactive) | 2.96 µM (inactive) | 1.73 µM (inactive) | 3.1 µM (inactive) | 0.367 µM (active) | 3.05 µM (inactive) | 1.26 µM (inactive) | 1.71 µM (inactive) | 1.72 µM (inactive) | 2.01 µM (inactive) | 3.25 µM (inactive) | 1.97 µM (inactive) | 0.746 µM (active) | – | 1.69 µM (inactive) | – |
| COc1ccc(CNc2nc3ccc(C(F)(F)F)cc3nc2-c2ccccc2)cc1OC | 60.8 µM (inactive) | – | 25.2 µM (inactive) | 78.7 µM (inactive) | > 100 µM (inactive) | > 100 µM (inactive) | > 100 µM (inactive) | 61.5 µM (inactive) | 13.9 µM (inactive) | – | 42.9 µM (inactive) | – | 71.6 µM (inactive) | 63.2 µM (inactive) | 9.91 µM (inactive) | – | 8.89 µM (inactive) |
| CSC(C1c2ccccc2N(c2ccc(C)cc2)c2[nH]c(=O)n(C)c(=O)c21)S(=O)(=O)c1ccc(C)cc1 (stereo unspecified) | > 100 µM (inactive) | > 100 µM (inactive) | > 100 µM (inactive) | > 100 µM (inactive) | > 100 µM (inactive) | > 100 µM (inactive) | > 100 µM (inactive) | > 100 µM (inactive) | > 100 µM (inactive) | – | > 100 µM (inactive) | > 100 µM (inactive) | > 100 µM (inactive) | > 100 µM (inactive) | 71.6 µM (inactive) | > 100 µM (inactive) | – |
| O=C(/C=C/c1ccccc1)CC(=O)CCC(=O)Nc1ccc(Cl)cc1 | > 100 µM (inactive) | 28.3 µM (inactive) | 77.3 µM (inactive) | > 100 µM (inactive) | 29.6 µM (inactive) | > 100 µM (inactive) | > 100 µM (inactive) | 88.9 µM (inactive) | 80.7 µM (inactive) | 44.4 µM (inactive) | > 100 µM (inactive) | 57.8 µM (inactive) | > 100 µM (inactive) | 60.3 µM (inactive) | > 100 µM (inactive) | > 100 µM (inactive) | – |
